Test results from US20250115654A1, “PHARMACEUTICAL COMPOSITION OF GLP-1 RECEPTOR AND GIP RECEPTOR DUAL AGONIST, AND USE THEREOF” (FUJIAN SHENGDI PHARMACEUTICAL CO., LTD., priority 2021, published 2025).
Numbered stars: 1 amine (or outer) side, 2 acyl side, 3 side chain; on linkers, the order of the positions; unused ones are H or OH. Square brackets hold non-standard residues; d marks the D form. Side chains are listed from the residue outwards. Peptide text beside a SMILES is read from it. * marks the point of attachment. C20 diacid = O=C(O)CCCCCCCCCCCCCCCCCCC(=O)*; γGlu = O=C(O)[C@H](CCC(=O)[*:2])N[*:1]; AEEA = NCCOCCOCC(=O)O; Aib = CC(C)(N)C(=O)O

Experiments:
DIO mice = assay: Food intake of DIO (diet-induced obesity) mice; type: in vivo, C57BL/6 mice; conditions: 100 nmol/kg
Description: High-fat food-induced-obesity male C57BL/6 mice (weighing 35-55 g, aged 10-12 weeks, purchased from Shanghai Jiesijie Laboratory Animal Co., Ltd.) were tested. […] According to the experimental design, the body weight of each mouse was measured and recorded on day 0, day 3, day 6, and so on to day 27, the average body weight of each group of mice was calculated, and body weight change curves were plotted by taking the body weight on the first day as the standard. At the end, the fat and other visceral organs of each part of the mice were taken out and weighed, and the viscera/brain ratio for fat in each part of each mouse was calculated. The effect of the drug on the fat was determined by comparing the change in the viscera/brain ratio for fat of different parts of each group of mice.
The food intake of mice in each group was measured daily during the experiment.

human GLP-1R = human GLP-1R (Homo sapiens, UniProt P43220); assay: Agonist activity against GLP-1R, cAMP HTRF in CHO-K1/GLP-1R/CRE-luc stable cells; conditions: Activity against human GLP-1R (EC50 nM), Table 6 run
human GLP-1R, sequence (P43220 24-463): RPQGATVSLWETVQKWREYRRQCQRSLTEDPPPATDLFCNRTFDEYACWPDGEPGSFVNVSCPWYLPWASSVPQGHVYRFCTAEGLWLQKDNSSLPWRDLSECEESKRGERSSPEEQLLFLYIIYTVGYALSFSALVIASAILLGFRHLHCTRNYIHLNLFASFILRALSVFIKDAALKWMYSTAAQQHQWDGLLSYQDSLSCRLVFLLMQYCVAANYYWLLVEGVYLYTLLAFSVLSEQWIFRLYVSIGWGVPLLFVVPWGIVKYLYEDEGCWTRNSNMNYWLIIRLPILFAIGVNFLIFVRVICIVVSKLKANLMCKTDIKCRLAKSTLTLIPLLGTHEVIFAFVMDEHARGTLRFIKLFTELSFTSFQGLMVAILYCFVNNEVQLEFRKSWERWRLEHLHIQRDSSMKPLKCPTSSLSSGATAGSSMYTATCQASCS

db/db mice = assay: Glucose metabolism level of db/db mice (fasting and random blood glucose, glycated hemoglobin); type: in vivo, C57BL/KsJ-db/db mice; conditions: for Glycated hemoglobin (%, mean ± SD): end of experiment day 28
Description: Each administration group had 10 db/db mice. According to the experimental design, tail vein blood was collected by needle pricking on days 0, 7, 14, 21, and 28 and determined for fasting blood glucose levels with a glucometer and glucose dipsticks, and the mice were fasted 6 h prior to the blood collection at each time point. Tail vein blood was collected by needle pricking on days 3, 10, 17, 24, and 27 and randomly determined for blood glucose levels with a glucometer. Finally, at the end of the experiment on day 28, all the animals in the administration groups were subjected to 2-5% isoflurane inhalation anesthesia, and 100 μL of whole blood was collected through the orbit of each mouse using an EDTA-K2 anticoagulation tube and used for the determination of glycated hemoglobin.

CC[C@H](C)[C@H](NC(=O)[C@H](CCCCN)NC(=O)[C@H](CCC(=O)O)NC(=O)[C@H](CCCCNC(=O)COCCOCCNC(=O)COCCOCCNC(=O)CC[C@H](NC(=O)CCCCCCCCCCCCCCCCCCC(=O)O)C(=O)O)NC(=O)[C@H](Cc1ccc(O)cc1)NC(=O)[C@@H](NC(=O)[C@H](CO)NC(=O)[C@H](Cc1ccc(O)cc1)NC(=O)[C@H](CC(=O)O)NC(=O)[C@H](CO)NC(=O)[C@@H](NC(=O)[C@H](Cc1ccccc1)NC(=O)[C@@H](NC(=O)CNC(=O)[C@H](CCC(=O)O)NC(=O)C(C)(C)NC(=O)[C@@H](N)Cc1ccc(O)cc1)[C@@H](C)O)[C@@H](C)O)[C@@H](C)CC)C(=O)N[C@@H](C)C(=O)N[C@@H](C)C(=O)N[C@@H](CCC(N)=O)C(=O)N[C@@H](CCC(=O)O)C(=O)N[C@@H](Cc1ccccc1)C(=O)N[C@H](C(=O)N[C@@H](CC(N)=O)C(=O)N[C@@H](Cc1c[nH]c2ccccc12)C(=O)N[C@@H](CC(C)C)C(=O)N[C@@H](CC(C)C)C(=O)N[C@@H](C)C(=O)NCC(=O)NCC(=O)N1CCC[C@H]1C(=O)N[C@@H](CO)C(=O)N[C@@H](CO)C(=O)NCC(=O)N[C@@H](C)C(=O)N1CCC[C@H]1C(=O)N1CCC[C@H]1C(=O)N1CCC[C@H]1C(=O)N[C@@H](CO)C(N)=O)C(C)C [Compound 18#] (H-Y[Aib]EGTFTSDYSIYK([AEEA-AEEA-γGlu-C20 diacid])EKIAAQEFVNWLLAGGPSSGAPPPS-NH2)
cumulative food intake (DIO mice; 28 days after the administration): 36.7 g
daily food intake ration (DIO mice; day 1 after administration): 0.2 ± 0.1 g
daily food intake ration (DIO mice; day 1 after administration, listed as 18#): 0.2 g
daily food intake ration (DIO mice; day 2 after administration): 0.1 ± 0.1 g
daily food intake ration (DIO mice; day 3 after administration): 0.4 ± 0.1 g
daily food intake ration (DIO mice; day 4 after administration): 0.4 ± 0.2 g
daily food intake ration (DIO mice; day 5 after administration): 0.6 ± 0.2 g
daily food intake ration (DIO mice; day 6 after administration): 0.7 ± 0.3 g
daily food intake ration (DIO mice; day 7 after administration): 0.5 ± 0.2 g
daily food intake ration (DIO mice; day 8 after administration): 0.7 ± 0.5 g
daily food intake ration (DIO mice; day 9 after administration): 0.9 ± 0.6 g
daily food intake ration (DIO mice; day 10 after administration): 0.9 ± 0.6 g
daily food intake ration (DIO mice; day 11 after administration): 1.1 ± 0.5 g
daily food intake ration (DIO mice; day 12 after administration): 2 ± 1 g
daily food intake ration (DIO mice; day 13 after administration): 1.3 ± 0.7 g
daily food intake ration (DIO mice; day 14 after administration): 1.7 ± 0.5 g
daily food intake ration (DIO mice; day 15 after administration): 2 ± 0.4 g
daily food intake ration (DIO mice; day 16 after administration): 1 ± 0.3 g
daily food intake ration (DIO mice; day 17 after administration): 1.6 ± 0.3 g
daily food intake ration (DIO mice; day 18 after administration): 2 ± 0.4 g
daily food intake ration (DIO mice; day 19 after administration): 1.4 ± 0.2 g
daily food intake ration (DIO mice; day 20 after administration): 1.8 ± 0.3 g
daily food intake ration (DIO mice; day 21 after administration): 2.4 ± 0.3 g
daily food intake ration (DIO mice; day 22 after administration): 1.4 ± 0.5 g
daily food intake ration (DIO mice; day 23 after administration): 2.1 ± 0.5 g
daily food intake ration (DIO mice; day 24 after administration): 2.3 ± 0.4 g
daily food intake ration (DIO mice; day 25 after administration): 1.5 ± 0.3 g
daily food intake ration (DIO mice; day 26 after administration): 1.6 ± 0.4 g
daily food intake ration (DIO mice; day 27 after administration): 2.8 ± 0.3 g
daily food intake ration (DIO mice; day 28 after administration): 1.2 ± 0.4 g
cumulative food intake (DIO mice; within 5 days after the administration): 1.8 g
EC50 (human GLP-1R): 0.013 nM
Concentration of fasting blood glucose (mMol/L, mean ± SD) (db/db mice; 10 nmol/kg, Day 0): 14.77 ± 1.30 mmol/L
Concentration of random blood glucose (mMol/L, mean ± SD) (db/db mice; 10 nmol/kg, Day 0): 20.42 ± 1.56 mmol/L
Concentration of fasting blood glucose (mMol/L, mean ± SD) (db/db mice; 10 nmol/kg, Day 7): 6.05 ± 0.42 mmol/L
Concentration of random blood glucose (mMol/L, mean ± SD) (db/db mice; 10 nmol/kg, Day 10): 20.66 ± 1.48 mmol/L
Concentration of fasting blood glucose (mMol/L, mean ± SD) (db/db mice; 10 nmol/kg, Day 14): 6.30 ± 0.46 mmol/L
Concentration of random blood glucose (mMol/L, mean ± SD) (db/db mice; 10 nmol/kg, Day 17): 18.91 ± 1.33 mmol/L
Concentration of fasting blood glucose (mMol/L, mean ± SD) (db/db mice; 10 nmol/kg, Day 21): 7.89 ± 0.81 mmol/L
Concentration of random blood glucose (mMol/L, mean ± SD) (db/db mice; 10 nmol/kg, Day 24): 21.17 ± 2.07 mmol/L
Concentration of fasting blood glucose (mMol/L, mean ± SD) (db/db mice; 10 nmol/kg, Day 28): 9.41 ± 0.97 mmol/L
Glycated hemoglobin (%, mean ± SD) (db/db mice; 10 nmol/kg): 4.71 ± 0.23 %
Concentration of fasting blood glucose (mMol/L, mean ± SD) (db/db mice; 30 nmol/kg, Day 0): 14.13 ± 1.32 mmol/L
Concentration of random blood glucose (mMol/L, mean ± SD) (db/db mice; 30 nmol/kg, Day 0): 16.73 ± 1.59 mmol/L
Concentration of fasting blood glucose (mMol/L, mean ± SD) (db/db mice; 30 nmol/kg, Day 7): 6.21 ± 0.26 mmol/L
Concentration of random blood glucose (mMol/L, mean ± SD) (db/db mice; 30 nmol/kg, Day 10): 15.88 ± 1.86 mmol/L
Concentration of fasting blood glucose (mMol/L, mean ± SD) (db/db mice; 30 nmol/kg, Day 14): 6.40 ± 0.57 mmol/L
Concentration of random blood glucose (mMol/L, mean ± SD) (db/db mice; 30 nmol/kg, Day 17): 17.30 ± 1.17 mmol/L
Concentration of fasting blood glucose (mMol/L, mean ± SD) (db/db mice; 30 nmol/kg, Day 21): 7.03 ± 0.52 mmol/L
Concentration of random blood glucose (mMol/L, mean ± SD) (db/db mice; 30 nmol/kg, Day 24): 17.43 ± 1.92 mmol/L
Concentration of fasting blood glucose (mMol/L, mean ± SD) (db/db mice; 30 nmol/kg, Day 28): 9.68 ± 1.03 mmol/L
Glycated hemoglobin (%, mean ± SD) (db/db mice; 30 nmol/kg): 4.53 ± 0.17 %
Concentration of fasting blood glucose (mMol/L, mean ± SD) (db/db mice; 100 nmol/kg, Day 0): 14.67 ± 1.46 mmol/L
Concentration of random blood glucose (mMol/L, mean ± SD) (db/db mice; 100 nmol/kg, Day 0): 9.11 ± 1.25 mmol/L
Concentration of fasting blood glucose (mMol/L, mean ± SD) (db/db mice; 100 nmol/kg, Day 7): 5.85 ± 0.33 mmol/L
Concentration of random blood glucose (mMol/L, mean ± SD) (db/db mice; 100 nmol/kg, Day 10): 12.34 ± 1.12 mmol/L
Concentration of fasting blood glucose (mMol/L, mean ± SD) (db/db mice; 100 nmol/kg, Day 14): 6.25 ± 0.32 mmol/L
Concentration of random blood glucose (mMol/L, mean ± SD) (db/db mice; 100 nmol/kg, Day 17): 11.89 ± 1.15 mmol/L
Concentration of fasting blood glucose (mMol/L, mean ± SD) (db/db mice; 100 nmol/kg, Day 21): 6.13 ± 0.19 mmol/L
Concentration of random blood glucose (mMol/L, mean ± SD) (db/db mice; 100 nmol/kg, Day 24): 11.51 ± 0.95 mmol/L
Concentration of fasting blood glucose (mMol/L, mean ± SD) (db/db mice; 100 nmol/kg, Day 28): 7.89 ± 0.41 mmol/L
Glycated hemoglobin (%, mean ± SD) (db/db mice; 100 nmol/kg, listed as 18#): 3.78%
Glycated hemoglobin (%, mean ± SD) (db/db mice; 100 nmol/kg, listed as #18): 3.78 ± 0.13 %
